# Data reported in article PMC4979471 (Cell Death Discovery, 2015).
# Where two headings read alike, the source gives them in different places.
# Experiments:
# Experiment in all cases: Kinase selectivity, P33-radiolabeled assay
# Format in all cases: biochemical
# Conditions in all cases: 10 μM ATP
# AKT2 = molecular target: T1, AKT2 (Homo sapiens, UniProt P31751)
# T1 construct: purchased Reaction Biology Corp
# Outline: (§1)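 Percent residual kinase activity versus DMSO is reported. Conditions: compound at 10 μM, ATP at 10 μM, n = 2.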
# CAMK1d = molecular target: T2, CAMK1d (Homo sapiens, UniProt Q8IU85)
# T2 construct: purchased Reaction Biology Corp
# Outline: as §1
# CLK2 = molecular target: T3, CLK2 (Homo sapiens, UniProt P49760)
# T3 construct: purchased Reaction Biology Corp
# Outline: as §1
# DYRK4 = molecular target: T4, DYRK4 (Homo sapiens, UniProt Q9NR20)
# T4 construct: purchased Reaction Biology Corp
# T4 sequence (Q9NR20 1-520): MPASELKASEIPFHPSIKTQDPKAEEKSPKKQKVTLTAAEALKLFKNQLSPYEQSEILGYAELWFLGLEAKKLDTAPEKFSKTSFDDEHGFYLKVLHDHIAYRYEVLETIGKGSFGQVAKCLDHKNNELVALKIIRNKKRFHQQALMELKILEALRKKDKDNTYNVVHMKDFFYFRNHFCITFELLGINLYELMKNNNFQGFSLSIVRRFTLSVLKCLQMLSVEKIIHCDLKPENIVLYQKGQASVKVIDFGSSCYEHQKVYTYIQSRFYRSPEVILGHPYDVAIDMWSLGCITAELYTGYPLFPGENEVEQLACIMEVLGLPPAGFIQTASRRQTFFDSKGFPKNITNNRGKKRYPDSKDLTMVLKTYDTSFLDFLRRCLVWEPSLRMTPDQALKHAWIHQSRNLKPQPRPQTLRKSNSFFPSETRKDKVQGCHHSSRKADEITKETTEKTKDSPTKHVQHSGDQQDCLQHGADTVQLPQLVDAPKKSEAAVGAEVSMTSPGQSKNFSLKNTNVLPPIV
# Outline: as §1
# EPHA6 = molecular target: T5, EPHA6 (Homo sapiens, UniProt Q9UF33)
# T5 construct: purchased Reaction Biology Corp
# T5 sequence (Q9UF33 23-1036): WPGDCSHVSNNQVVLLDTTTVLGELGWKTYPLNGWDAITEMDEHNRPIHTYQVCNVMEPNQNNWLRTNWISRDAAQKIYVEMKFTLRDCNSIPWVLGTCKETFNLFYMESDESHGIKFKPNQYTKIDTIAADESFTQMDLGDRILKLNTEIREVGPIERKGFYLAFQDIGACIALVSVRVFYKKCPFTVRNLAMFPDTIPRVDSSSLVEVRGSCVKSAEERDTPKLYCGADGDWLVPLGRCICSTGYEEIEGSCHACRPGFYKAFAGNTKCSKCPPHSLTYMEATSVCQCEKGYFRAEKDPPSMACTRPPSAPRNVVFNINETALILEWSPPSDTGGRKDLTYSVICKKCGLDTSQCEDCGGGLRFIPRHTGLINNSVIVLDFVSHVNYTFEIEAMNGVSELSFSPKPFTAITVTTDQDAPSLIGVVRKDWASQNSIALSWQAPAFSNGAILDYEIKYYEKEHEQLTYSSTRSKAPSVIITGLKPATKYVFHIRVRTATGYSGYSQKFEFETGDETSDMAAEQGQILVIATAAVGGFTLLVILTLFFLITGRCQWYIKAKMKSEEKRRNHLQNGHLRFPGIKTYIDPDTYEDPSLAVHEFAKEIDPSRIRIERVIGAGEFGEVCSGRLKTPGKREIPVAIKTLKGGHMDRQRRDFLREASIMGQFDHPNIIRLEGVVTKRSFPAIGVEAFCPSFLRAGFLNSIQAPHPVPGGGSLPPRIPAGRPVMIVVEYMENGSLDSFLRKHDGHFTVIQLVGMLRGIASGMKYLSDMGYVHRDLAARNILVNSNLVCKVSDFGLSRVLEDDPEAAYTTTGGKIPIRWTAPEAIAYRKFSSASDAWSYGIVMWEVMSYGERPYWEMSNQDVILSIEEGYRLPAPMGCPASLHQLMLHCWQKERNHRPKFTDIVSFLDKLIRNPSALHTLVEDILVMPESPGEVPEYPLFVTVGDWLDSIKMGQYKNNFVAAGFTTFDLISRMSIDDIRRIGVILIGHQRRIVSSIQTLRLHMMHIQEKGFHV
# Outline: as §1
# GSK3b = molecular target: T6, GSK3b (Homo sapiens, UniProt P49841)
# T6 construct: purchased Reaction Biology Corp
# Outline: as §1
# JNK1 = molecular target: T7, JNK1 (Homo sapiens, UniProt P45983)
# T7 construct: purchased Reaction Biology Corp
# Outline: as §1
# LCK = molecular target: T8, LCK (Homo sapiens, UniProt P06239)
# T8 construct: purchased Reaction Biology Corp
# Outline: as §1
# MKK6 = molecular target: T9, MKK6 (Homo sapiens, UniProt P52564)
# T9 construct: purchased Reaction Biology Corp
# T9 sequence (P52564 1-334): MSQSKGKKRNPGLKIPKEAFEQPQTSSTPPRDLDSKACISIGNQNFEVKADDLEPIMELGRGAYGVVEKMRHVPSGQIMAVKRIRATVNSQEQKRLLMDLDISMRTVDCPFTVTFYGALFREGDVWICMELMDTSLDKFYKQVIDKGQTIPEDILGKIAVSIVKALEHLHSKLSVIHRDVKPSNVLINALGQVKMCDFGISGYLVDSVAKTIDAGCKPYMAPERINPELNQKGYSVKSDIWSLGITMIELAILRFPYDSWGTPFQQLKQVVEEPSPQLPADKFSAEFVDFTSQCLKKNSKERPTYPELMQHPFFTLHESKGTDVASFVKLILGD
# Outline: as §1
# SRPK2 = molecular target: T10, SRPK2 (Homo sapiens, UniProt P78362)
# T10 construct: purchased Reaction Biology Corp
# Outline: as §1
# TIE2/TEK = molecular target: T11, TIE2/TEK (Homo sapiens, UniProt Q02763)
# T11 construct: purchased Reaction Biology Corp
# Outline: as §1
# p70S6Kb/RPS6KB2 = molecular target: T12, p70S6Kb/RPS6KB2 (Homo sapiens, UniProt Q9UBS0)
# T12 construct: purchased Reaction Biology Corp
# Outline: as §1
# [1] = read-out: % Enzyme Activity (relative to DMSO controls) AVG
# [2] = read-out: % Enzyme Activity (relative to DMSO controls) Data 1
# [3] = read-out: % Enzyme Activity (relative to DMSO controls) Data 2
# T10 sequence (P78362 whole entry): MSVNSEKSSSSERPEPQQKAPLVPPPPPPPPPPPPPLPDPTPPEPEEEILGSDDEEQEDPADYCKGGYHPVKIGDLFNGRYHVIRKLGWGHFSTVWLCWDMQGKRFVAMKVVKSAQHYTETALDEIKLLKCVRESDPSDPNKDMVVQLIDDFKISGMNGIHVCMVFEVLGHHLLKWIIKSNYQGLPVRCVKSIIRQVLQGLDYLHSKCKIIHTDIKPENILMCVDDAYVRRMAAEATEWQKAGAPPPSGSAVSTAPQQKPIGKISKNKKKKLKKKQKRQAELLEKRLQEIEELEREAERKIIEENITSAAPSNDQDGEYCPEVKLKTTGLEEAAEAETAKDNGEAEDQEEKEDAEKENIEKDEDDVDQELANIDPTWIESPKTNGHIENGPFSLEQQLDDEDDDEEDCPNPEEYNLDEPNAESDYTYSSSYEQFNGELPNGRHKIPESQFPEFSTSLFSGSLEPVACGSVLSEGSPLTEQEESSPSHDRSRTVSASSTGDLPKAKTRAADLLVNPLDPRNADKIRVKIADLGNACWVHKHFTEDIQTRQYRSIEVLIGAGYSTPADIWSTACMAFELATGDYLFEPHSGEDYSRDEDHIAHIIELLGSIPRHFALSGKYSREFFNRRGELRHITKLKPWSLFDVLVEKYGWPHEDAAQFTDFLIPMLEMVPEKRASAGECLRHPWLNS
# T6 sequence (P49841 whole entry): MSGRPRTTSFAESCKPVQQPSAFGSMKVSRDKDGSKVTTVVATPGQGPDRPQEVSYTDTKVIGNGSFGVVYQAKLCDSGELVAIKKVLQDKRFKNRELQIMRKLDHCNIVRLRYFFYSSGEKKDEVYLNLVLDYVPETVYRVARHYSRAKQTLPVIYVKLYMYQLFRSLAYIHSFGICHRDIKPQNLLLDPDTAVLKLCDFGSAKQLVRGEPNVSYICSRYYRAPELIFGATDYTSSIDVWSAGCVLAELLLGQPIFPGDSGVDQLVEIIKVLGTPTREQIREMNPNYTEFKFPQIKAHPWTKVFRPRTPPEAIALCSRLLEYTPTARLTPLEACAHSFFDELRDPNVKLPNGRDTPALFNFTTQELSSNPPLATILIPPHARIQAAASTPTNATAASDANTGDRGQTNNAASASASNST
# T3 sequence (P49760 whole entry): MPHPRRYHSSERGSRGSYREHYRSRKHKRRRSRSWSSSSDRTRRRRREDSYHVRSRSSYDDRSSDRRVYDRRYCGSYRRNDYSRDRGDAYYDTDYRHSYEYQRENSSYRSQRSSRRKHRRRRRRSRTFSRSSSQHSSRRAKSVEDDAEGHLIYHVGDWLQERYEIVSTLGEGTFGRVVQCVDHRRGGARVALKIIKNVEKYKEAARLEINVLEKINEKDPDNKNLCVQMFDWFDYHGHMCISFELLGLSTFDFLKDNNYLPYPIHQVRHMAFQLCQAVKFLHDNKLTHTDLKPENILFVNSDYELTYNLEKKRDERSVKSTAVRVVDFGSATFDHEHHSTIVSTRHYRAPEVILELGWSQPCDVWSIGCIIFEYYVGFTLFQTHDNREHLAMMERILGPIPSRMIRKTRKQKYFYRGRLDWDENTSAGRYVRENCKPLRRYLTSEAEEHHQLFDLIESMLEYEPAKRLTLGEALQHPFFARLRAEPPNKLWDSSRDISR
# T11 sequence (Q02763 23-1124): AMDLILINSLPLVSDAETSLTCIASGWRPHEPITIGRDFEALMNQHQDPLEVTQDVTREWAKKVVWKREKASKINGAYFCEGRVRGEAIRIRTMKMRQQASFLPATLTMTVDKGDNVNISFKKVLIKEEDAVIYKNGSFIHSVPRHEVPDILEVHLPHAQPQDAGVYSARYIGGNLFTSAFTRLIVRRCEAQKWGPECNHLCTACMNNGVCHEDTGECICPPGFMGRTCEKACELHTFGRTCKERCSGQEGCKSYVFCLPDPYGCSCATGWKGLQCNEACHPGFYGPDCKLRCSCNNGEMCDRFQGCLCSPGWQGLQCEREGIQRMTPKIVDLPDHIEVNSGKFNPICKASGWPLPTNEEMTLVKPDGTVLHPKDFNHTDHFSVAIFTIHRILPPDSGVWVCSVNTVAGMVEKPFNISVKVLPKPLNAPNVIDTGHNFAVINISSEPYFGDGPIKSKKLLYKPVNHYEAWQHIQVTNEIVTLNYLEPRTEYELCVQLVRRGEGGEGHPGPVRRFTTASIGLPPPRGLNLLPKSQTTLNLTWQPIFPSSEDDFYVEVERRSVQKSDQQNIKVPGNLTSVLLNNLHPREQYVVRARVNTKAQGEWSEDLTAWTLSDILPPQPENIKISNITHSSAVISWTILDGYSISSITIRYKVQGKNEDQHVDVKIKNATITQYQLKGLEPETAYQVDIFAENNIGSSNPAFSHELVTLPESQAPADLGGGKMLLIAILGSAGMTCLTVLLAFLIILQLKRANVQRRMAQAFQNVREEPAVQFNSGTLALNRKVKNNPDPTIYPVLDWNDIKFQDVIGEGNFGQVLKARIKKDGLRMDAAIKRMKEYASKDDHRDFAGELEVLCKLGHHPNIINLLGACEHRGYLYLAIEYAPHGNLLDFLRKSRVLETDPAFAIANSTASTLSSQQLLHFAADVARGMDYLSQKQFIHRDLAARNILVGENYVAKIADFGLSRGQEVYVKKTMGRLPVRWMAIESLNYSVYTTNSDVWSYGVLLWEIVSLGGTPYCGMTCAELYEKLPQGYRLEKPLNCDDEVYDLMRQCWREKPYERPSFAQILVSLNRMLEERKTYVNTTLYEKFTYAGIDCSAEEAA
# T7 sequence (P45983 whole entry): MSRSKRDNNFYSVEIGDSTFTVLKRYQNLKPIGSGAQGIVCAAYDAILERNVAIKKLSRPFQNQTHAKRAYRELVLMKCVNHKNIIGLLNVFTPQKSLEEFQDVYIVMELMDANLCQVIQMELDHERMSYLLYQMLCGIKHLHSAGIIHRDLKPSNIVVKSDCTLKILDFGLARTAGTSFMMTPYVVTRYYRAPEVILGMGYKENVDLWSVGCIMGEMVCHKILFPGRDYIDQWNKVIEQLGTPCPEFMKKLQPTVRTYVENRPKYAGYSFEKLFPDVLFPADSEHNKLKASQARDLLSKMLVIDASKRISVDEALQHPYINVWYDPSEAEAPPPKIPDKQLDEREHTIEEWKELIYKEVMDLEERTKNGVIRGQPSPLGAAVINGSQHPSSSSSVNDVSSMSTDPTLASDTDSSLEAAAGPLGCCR
# T2 sequence (Q8IU85 whole entry): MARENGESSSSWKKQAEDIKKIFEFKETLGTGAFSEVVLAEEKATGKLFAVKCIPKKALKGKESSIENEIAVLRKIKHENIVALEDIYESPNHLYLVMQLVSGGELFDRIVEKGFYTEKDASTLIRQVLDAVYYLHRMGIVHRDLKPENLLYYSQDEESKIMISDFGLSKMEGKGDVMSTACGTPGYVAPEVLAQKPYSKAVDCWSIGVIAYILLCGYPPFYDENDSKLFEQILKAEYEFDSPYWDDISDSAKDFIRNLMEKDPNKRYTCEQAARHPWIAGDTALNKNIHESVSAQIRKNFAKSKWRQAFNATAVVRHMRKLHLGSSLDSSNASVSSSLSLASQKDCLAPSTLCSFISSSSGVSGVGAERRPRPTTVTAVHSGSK
# T8 sequence (P06239 whole entry): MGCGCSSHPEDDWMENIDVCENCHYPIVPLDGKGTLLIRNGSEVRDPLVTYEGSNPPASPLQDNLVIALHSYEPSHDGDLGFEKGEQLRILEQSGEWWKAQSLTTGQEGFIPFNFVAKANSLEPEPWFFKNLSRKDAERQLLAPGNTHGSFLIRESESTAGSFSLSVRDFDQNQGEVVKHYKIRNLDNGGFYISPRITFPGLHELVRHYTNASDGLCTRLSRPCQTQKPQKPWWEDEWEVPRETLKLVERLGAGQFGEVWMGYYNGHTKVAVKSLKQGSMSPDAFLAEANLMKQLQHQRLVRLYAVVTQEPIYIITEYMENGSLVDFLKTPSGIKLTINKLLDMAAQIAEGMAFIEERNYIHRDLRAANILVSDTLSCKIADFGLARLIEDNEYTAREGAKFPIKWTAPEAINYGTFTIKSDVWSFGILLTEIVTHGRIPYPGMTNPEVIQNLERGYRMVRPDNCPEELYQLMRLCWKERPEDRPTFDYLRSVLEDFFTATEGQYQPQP
# T12 sequence (Q9UBS0 whole entry): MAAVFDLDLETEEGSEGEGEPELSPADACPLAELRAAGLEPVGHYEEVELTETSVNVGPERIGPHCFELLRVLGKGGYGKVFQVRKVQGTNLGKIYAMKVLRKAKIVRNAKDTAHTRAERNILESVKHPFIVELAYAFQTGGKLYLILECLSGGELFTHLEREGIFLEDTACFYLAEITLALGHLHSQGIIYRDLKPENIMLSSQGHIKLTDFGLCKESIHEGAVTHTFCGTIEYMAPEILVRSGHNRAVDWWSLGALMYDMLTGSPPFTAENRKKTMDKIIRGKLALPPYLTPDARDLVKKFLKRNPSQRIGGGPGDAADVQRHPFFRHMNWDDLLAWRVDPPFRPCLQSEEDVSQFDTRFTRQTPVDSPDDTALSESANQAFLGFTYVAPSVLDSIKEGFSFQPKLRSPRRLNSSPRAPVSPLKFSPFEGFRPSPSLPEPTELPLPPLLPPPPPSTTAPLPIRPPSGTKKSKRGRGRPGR
# T1 sequence (P31751 whole entry): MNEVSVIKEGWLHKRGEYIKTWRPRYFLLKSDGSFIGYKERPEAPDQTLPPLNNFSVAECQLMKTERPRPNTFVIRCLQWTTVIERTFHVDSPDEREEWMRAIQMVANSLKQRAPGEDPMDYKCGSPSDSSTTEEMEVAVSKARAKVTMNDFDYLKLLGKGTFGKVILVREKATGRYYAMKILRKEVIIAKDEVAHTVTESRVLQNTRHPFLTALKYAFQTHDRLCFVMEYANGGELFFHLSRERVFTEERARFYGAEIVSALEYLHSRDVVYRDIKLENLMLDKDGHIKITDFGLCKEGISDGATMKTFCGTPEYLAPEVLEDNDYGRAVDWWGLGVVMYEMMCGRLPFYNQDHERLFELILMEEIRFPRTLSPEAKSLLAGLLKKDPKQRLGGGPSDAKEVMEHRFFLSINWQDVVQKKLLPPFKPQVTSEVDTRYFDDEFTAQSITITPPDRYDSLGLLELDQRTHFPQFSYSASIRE
smiles,measurement,setting,value
CC(C)(C)C(=O)N1N=CC[C@H]1c1ccccc1 [GSK′963],remaining activity at 10 µM,AKT2; [1],92.8%
same,remaining activity at 10 µM,AKT2; [2],91.7%
same,remaining activity at 10 µM,AKT2; [3],93.9%
same,remaining activity at 10 µM,CAMK1d; [1],90.2%
same,remaining activity at 10 µM,CAMK1d; [2],88.6%
same,remaining activity at 10 µM,CAMK1d; [3],91.8%
same,remaining activity at 10 µM,CLK2; [1],101%
same,remaining activity at 10 µM,CLK2; [2],102%
same,remaining activity at 10 µM,CLK2; [3],99.7%
same,remaining activity at 10 µM,DYRK4; [1],101%
same,remaining activity at 10 µM,DYRK4; [2],101%
same,remaining activity at 10 µM,DYRK4; [3],101%
same,remaining activity at 10 µM,EPHA6; [1],99.3%
same,remaining activity at 10 µM,EPHA6; [2],101%
same,remaining activity at 10 µM,EPHA6; [3],97.5%
same,remaining activity at 10 µM,GSK3b; [1],98.7%
same,remaining activity at 10 µM,GSK3b; [2],98.8%
same,remaining activity at 10 µM,GSK3b; [3],98.6%
same,remaining activity at 10 µM,JNK1; [1],97.1%
same,remaining activity at 10 µM,JNK1; [2],97.3%
same,remaining activity at 10 µM,JNK1; [3],97%
same,remaining activity at 10 µM,LCK; [1],96.4%
same,remaining activity at 10 µM,LCK; [2],96.1%
same,remaining activity at 10 µM,LCK; [3],96.7%
same,remaining activity at 10 µM,MKK6; [1],99.7%
same,remaining activity at 10 µM,MKK6; [2],101%
same,remaining activity at 10 µM,MKK6; [3],98.6%
same,remaining activity at 10 µM,SRPK2; [1],102%
same,remaining activity at 10 µM,SRPK2; [2],102%
same,remaining activity at 10 µM,SRPK2; [3],102%
same,remaining activity at 10 µM,TIE2/TEK; [1],98.1%
same,remaining activity at 10 µM,TIE2/TEK; [2],95.5%
same,remaining activity at 10 µM,TIE2/TEK; [3],101%
same,remaining activity at 10 µM,p70S6Kb/RPS6KB2; [1],100%
same,remaining activity at 10 µM,p70S6Kb/RPS6KB2; [2],102%
same,remaining activity at 10 µM,p70S6Kb/RPS6KB2; [3],98%
